Data as given in patent US6610665B1 (Smithkline Beecham Corporation, priority 1998, dated 2003).
Counter-ions that a name gives are not always drawn.

Key:
Assay type in all cases: cell-based
Conditions in all cases: ratio to NECA
[1] = target: T1, adenosine 3 receptor (Homo sapiens, UniProt P0DMS8); experiment: Agonist activity, CHO cells transfected with human adenosine receptor and CRE-SPAP reporter; forskolin-enhanced cAMP (A3)
T1 construct: expressed in transfected cells; host or cells: CHO cells
T1 sequence (P0DMS8 1-318): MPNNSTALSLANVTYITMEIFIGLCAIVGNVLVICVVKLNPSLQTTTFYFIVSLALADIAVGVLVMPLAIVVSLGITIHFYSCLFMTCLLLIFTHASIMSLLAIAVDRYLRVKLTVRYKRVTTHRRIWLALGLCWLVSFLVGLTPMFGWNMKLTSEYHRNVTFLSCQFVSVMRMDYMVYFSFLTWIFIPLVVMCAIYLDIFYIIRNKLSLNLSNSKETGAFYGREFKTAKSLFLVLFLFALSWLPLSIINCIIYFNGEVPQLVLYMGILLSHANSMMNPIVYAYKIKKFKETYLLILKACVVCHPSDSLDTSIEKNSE
Procedure: (§1) (1) Agonist activity against adenosine 2a, adenosine 1 and adenosine 3 receptor subtypes.
(§2) Agonist selectivity of compounds against other human adenosine receptors is determined using Chinese hamster ovary (CHO) cells transfected with the gene for the relevant human adenosine receptor following a method based on that of Castanon and Spevak, 1994. The CHO cells are also transfected with cyclic AMP response elements promoting the gene for secreted placental alkaline phosphatase (SPAP) (Wood, 1995). The effect of test compounds may be determined by their effects on basal levels of CAMP (A2a) or on forskolin-enhanced cAMP (A1 and A3) as reflected by changes in levels of SPAP. EC50 values for compounds may then be determined as a ratio to that of the non-selective agonist N-ethyl carboxamide adenosine (NECA).

[2] = target: T2, adenosine 1 receptor (Homo sapiens, UniProt P30542); experiment: Agonist activity, CHO cells transfected with human adenosine receptor and CRE-SPAP reporter; forskolin-enhanced cAMP (A1)
T2 construct: expressed in transfected cells; host or cells: CHO cells
T2 sequence (P30542 1-326): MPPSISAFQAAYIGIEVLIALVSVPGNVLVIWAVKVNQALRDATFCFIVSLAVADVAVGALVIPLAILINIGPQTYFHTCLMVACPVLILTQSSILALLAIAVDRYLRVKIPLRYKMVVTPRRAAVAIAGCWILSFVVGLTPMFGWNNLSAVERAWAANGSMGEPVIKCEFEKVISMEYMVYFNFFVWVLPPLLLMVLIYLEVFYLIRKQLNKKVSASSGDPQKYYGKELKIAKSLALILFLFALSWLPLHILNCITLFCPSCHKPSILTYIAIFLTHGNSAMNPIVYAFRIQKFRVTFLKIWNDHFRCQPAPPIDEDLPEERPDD
Procedure: as §1, §2

[3] = target: T3, adenosine 2a receptor (Homo sapiens, UniProt P29274); experiment: Agonist activity, CHO cells transfected with human adenosine receptor and CRE-SPAP reporter; basal cAMP (A2a)
T3 construct: expressed in transfected cells; host or cells: CHO cells
T3 sequence (P29274 whole entry): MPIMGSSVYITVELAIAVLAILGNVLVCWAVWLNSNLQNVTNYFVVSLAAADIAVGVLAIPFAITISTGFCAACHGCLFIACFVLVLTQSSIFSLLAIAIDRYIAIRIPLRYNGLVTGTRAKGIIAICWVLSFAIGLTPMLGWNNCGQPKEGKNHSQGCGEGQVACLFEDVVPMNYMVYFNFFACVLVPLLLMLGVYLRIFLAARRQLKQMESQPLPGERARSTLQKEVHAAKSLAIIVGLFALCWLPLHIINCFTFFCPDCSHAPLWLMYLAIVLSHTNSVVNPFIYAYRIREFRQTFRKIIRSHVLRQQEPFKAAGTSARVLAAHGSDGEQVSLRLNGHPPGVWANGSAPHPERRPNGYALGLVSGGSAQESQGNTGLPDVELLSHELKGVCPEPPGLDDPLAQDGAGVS
Procedure: as §1, §2

[4] = * data are minimum values since preparation was found, after testing, to contain an inactive impurity

Row | Molecule | A3, EC50 as a ratio of that of NECA ([1]; CHO cells, SPAP readout) | A1, EC50 as a ratio of that of NECA ([2]; CHO cells, SPAP readout) | A2a, EC50 as a ratio of that of NECA ([3]; CHO cells, SPAP readout) | A3, EC50 as a ratio of that of NECA [1, 4] | A1, EC50 as a ratio of that of NECA [2, 4] | A2a, EC50 as a ratio of that of NECA [3, 4]
1 | CCc1noc([C@H]2O[C@@H](n3cnc4c(NC(CC)CC)nc(N[C@H]5CCC[C@@H]5O)nc43)[C@H](O)[C@@H]2O)n1.O=CO [Example 25, (2S,3S,4R,5R)-2-(3-Ethyl-[1,2,4]oxadiazol-5-yl)-5-[6-(1-ethyl-propylamino)-2-(2S-hydroxy-cyclopent-(S)-ylamino)-purin-9-yl]-tetrahydro-furan-3,4-diol formate] | >163 | 515.35 | 19.35 |  |  | 
2 | CCc1noc(C2OC(n3cnc4c(N)nc(NCCc5ccccn5)nc43)C(O)C2O)n1.O=CO.O=CO (stereo not drawn) [Example 8] |  |  |  | >215 | >=3865 | 14.05
3 | Cc1noc(C2OC(n3cnc4c(N)nc(NC(CO)Cc5ccccc5)nc43)C(O)C2O)n1 [Example 12, (2R,3R,4S,5S)-2-[6-Amino-2-(1S-hydroxymethyl-2-phenyl-ethylamino)-purin-9-yl]-5-(3-methyl-[1,2,4]oxadiazol-5-yl)-tetrahydro-furan-3,4-diol formate] |  |  |  | >302 | 1863.5 | 4.54
4 | CCc1noc([C@H]2O[C@@H](n3cnc4c(NCC(c5ccccc5)c5ccccc5)nc(NCCc5ccc(OC)c(OC)c5)nc43)[C@H](O)[C@@H]2O)n1.O=CO [Example 42, (2R,3R,4S,5S)-2-{2-(2-[3,4-Dimethoxy-phenyl]-ethylamino)-6-(2,2-diphenyl-ethylamino)-purin-9-yl}-5-(3-ethyl-[1,2,4]oxadiazol-5-yl)-tetrahydro-furan-3,4-diol formate] | >130 | >6064 | 32.77 |  |  | 
5 | (2S,3S,4R,5R)-2-(3-Cyclopropyl-[1,2,4]oxadiazol-5-yl)-5-[6-(1-ethyl-propylamino)-2-(2-(1-methyl-1H-imidazol-4-yl)-ethylamino)-purin-9-yl]-tetrahydro-furan-3,4-diol diformate [Example 38] | >87 | 670.04 | 2.02 |  |  | 
6 | CCc1noc([C@H]2O[C@@H](n3cnc4c(NC(CC)CC)nc(NCCN5CCOCC5)nc43)[C@H](O)[C@@H]2O)n1.O=CO [Example 19, (2S,3S,4R,5R)-2-(3-Ethyl-[1,2,4]oxadiazol-5-yl)-5-[6-(1-ethyl-propylamino)-2-(2-morpholin-4-yl-ethylamino)-purin-9-yl]-tetrahydro-furan-3,4-diol formate] |  |  |  | >694 | >5860 | 34.52
7 | CCc1noc(C2OC(n3cnc4c(NCC(c5ccccc5)c5ccccc5)nc(NC5CCC(N)CC5)nc43)C(O)C2O)n1.O=CO.O=CO [Example 4, (2R,3R,4S,5S)-2-[2-(trans-4-Amino-cyclohexylamino)-6-(2,2-diphenyl-ethylamino)-purin-9-yl]-5-(3-ethyl-[1,2,4]oxadiazol-5-yl)-tetrahydro-furan-3,4-diol diformate] | >383 | >=3996 | 5.37 |  |  | 
8 | CCc1noc([C@H]2O[C@@H](n3cnc4c(NC(CC)CC)nc(NCCN5CCCCC5)nc43)[C@H](O)[C@@H]2O)n1.O=CO [Example 20, (2S,3S,4R,5R)-2-(3-Ethyl-[1,2,4]oxadiazol-5-yl)-5-[6-(1-ethyl-propylamino)-2-(2-piperidin-1-yl-ethylamino)-purin-9-yl]-tetrahydro-furan-3,4-diol formate] |  |  |  | >694 | >=1853 | 17.08
9 | CCc1noc([C@H]2O[C@@H](n3cnc4c(NCC(c5ccccc5)c5ccccc5)nc(NCCN5CCOCC5)nc43)[C@H](O)[C@@H]2O)n1.O=CO [Example 31, (2R,3R,4S,5S)-2-[6-(2,2-Diphenyl-ethylamino)-2-(2-morpholin-4-yl-ethylamino)-purin-9-yl]-5-(3-ethyl-[1,2,4]oxadiazol-5-yl)-tetrahydro-furan-3,4-diol formate] | >262 | 6452 | 30.6 |  |  | 
10 | Cc1noc(C2OC(n3cnc4c(N)nc(NCCc5ccccn5)nc43)C(O)C2O)n1.O=CO.O=CO (stereo not drawn) [Example 30] |  |  |  | >215 | 1460.7 | 19.54
11 | CCc1noc([C@H]2O[C@@H](n3cnc4c(NCC(c5ccccc5)c5ccccc5)nc(NCCNc5ccccn5)nc43)[C@H](O)[C@@H]2O)n1.O=CO.O=CO [Example 40] | >130 | >=3311.7 | 4.89 |  |  | 
12 | CCC(CC)Nc1nc(NCCc2ccccn2)nc2c1ncn2[C@@H]1O[C@H](c2nc(C3CC3)no2)[C@@H](O)[C@H]1O.O=CO.O=CO [Example 37] | >87 | >10402 | 49.45 |  |  | 
13 | CCc1noc(C2OC(n3cnc4c(NCC(c5ccccc5)c5ccccc5)nc(NC(CO)C(C)C)nc43)C(O)C2O)n1 [Example 5, (2R,3R,4S,5S)-2-[6-(2,2-Diphenyl-ethylamino)-2-(1S-hydroxymethyl-2-methyl-propylamino)-purin-9-yl]-5-(3-ethyl-[1,2,4]oxadiazol-5-yl)-tetrahydro-furan-3,4-diol formate] | >309 | 1391.2 | 6.12 |  |  | 
14 | CCc1noc([C@H]2O[C@@H](n3cnc4c(NC(CC)CC)nc(NC5CCCC5)nc43)[C@H](O)[C@@H]2O)n1.O=CO [Example 23, (2R,3R,4S,5S)-2-[2-Cyclopentylamino-6-(1-ethyl-propylamino)-purin-9-yl]-5-(3-ethyl-[1,2,4]oxadiazol-5-yl)-tetrahydro-furan-3,4-diol formate] | >163 | 17.02 | 12.72 |  |  | 
15 | CCc1noc([C@H]2O[C@@H](n3cnc4c(NCC(c5ccccc5)c5ccccc5)nc(NCCc5cn(C)cn5)nc43)[C@H](O)[C@@H]2O)n1.O=C(O)C(F)F.O=C(O)C(F)F [Example 2] | >197 | 1823 | 0.64 |  |  | 
16 | CCCc1noc([C@H]2O[C@@H](n3cnc4c(NCC(c5ccccc5)c5ccccc5)nc(NCCc5cn(C)cn5)nc43)[C@H](O)[C@@H]2O)n1.O=CO [Example 33, (2R,3R,4S,5S)-2-{6-(2,2-Diphenyl-ethylamino)-2-[2-(1-methyl-1H-imidazol-4-yl)-ethylamino]-purin-9-yl}-5-(3-propyl-[1,2,4]oxadiazol-5-yl)-tetrahydro-furan-3,4-diol formate] |  |  |  | >259 | ≧815.9 | 8.35
17 | CCC(CC)Nc1nc(NC(CO)Cc2ccccc2)nc2c1ncn2C1OC(c2nc(C)no2)C(O)C1O [Example 17, (2R,3R,4S,5S)-2-[6-(1-Ethyl-propylamino)-2-(1S-hydroxymethyl-2-phenl-ethylamino)-purin-9-yl]-5-(3-methyl-[1,2,4]oxadiazol-5-yl)-tetrahydro-furan-3,4-diol formate] |  |  |  | >362 | >6244 | 3.97
18 | CCc1noc(C2OC(n3cnc4c(NCCC5CCCCC5)nc(NCCc5cn(C)cn5)nc43)C(O)C2O)n1.O=CO.O=CO [Example 47, (2R,3R,4S,5S)-2-{6-(2-cyclohexylethylamino)-2-[2-(1-methyl-1H-imidazol4-yl)ethylamino]-purin-9-yl}-5-(3-ethyl-[1,2,4]oxadiazol-5-yl)-tetrahydro-furan-3,4-diol diformate] | >165 | 4993.28 | 6.93 |  |  | 
19 | Cc1noc([C@H]2O[C@@H](n3cnc4c(N)nc(NCCc5cn(C)cn5)nc43)[C@H](O)[C@@H]2O)n1.O=C(O)C(F)(F)F.O=C(O)C(F)(F)F [Example 7] |  |  |  | >117 | 1013.4 | 11.02
